SMILES strings stand for the structures. Like-named read-outs stand apart in the source and are kept apart here. Bounds are passed on as bounds.

A short description of series [1]: Pharmacokinetics and oral bioavailability in the mouse. To be noted: for F on AUC: 10 mg/kg, ratio of oral to IV dose-normalized plasma AUC; for clearance / Vd / AUC / half-life: male, Balb Nu/Nu, plasma, mean value; for clearance / Vd: 10 mg/kg intravenous bolus; for clearance: read-out: CL(IV bolus); for Vd: read-out: Vdss (IV bolus); for AUC / half-life: 10 mg/kg oral; for half-life: read-out: T½ (oral) (converted). Format: in vivo.
Protocol: The compounds were formulated in 10% tween 80/dextrose for intravenous bolus administration while oral administrations were performed using the compounds formulated in 0.5% methylcellulose. A single administration at the dose of 10 mg/kg was given and three male animals for each route were used. […] Plasma samples were prepared by plasma proteins precipitation adding 200 µl of methanol to 10 µl of plasma in a 96 well plate. […] The supernatant was considered as final extract and injected onto the LC-MS-MS system (HPLC system: Hewlett Packard 1100 series using Atlantis HILIC Silica 50*2.1 mm 5.0 μM analytical column; MS instrument: Perkin Elmer SCIEX API 2000 and ionization performed with Turbo Ion Spray in positive ion mode). Lower limit of quantification is 5.0 ng/ml, upper limit of quantification is 10000 ng/ml. […] Non-compartmental method (linear trapezoidal rule and linear regression analysis of natural log-transformed plasma concentrations vs. time data) was used. After intravenous dosing, C0 was set equal to C0.083, Absolute bioavailability (F) was calculated from the ratio of average oral to IV (intravenous) dose-normalized plasma AUC (area under curve) values.

For series [2], the target named is T1, PARP-3 FL (Homo sapiens, UniProt Q9Y6F1).
T1 sequence (Q9Y6F1 1-533): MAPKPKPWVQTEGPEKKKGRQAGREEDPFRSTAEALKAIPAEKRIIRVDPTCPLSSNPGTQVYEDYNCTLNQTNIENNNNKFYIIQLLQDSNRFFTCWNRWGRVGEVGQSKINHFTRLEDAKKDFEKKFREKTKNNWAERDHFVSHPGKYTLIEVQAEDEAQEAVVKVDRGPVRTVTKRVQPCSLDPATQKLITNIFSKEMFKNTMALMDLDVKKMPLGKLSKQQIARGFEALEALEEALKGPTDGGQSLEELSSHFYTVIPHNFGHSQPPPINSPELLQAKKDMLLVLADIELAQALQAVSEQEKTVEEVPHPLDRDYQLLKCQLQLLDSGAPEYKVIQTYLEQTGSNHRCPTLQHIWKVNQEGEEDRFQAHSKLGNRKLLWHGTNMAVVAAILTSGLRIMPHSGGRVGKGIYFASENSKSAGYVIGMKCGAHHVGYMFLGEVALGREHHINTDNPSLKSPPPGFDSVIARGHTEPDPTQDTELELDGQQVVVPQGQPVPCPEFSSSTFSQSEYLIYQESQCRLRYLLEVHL
Nature of the series: Fluorescence polarization probe displacement assay. Format: binding. As to conditions: compound P1 as the probe.
Protocol: (§1) Affinity of the tested compounds and their selectivity with respect to the different PARP isoforms of interest was quantified in a displacement assay.
(§2) In all of the experiments, the polarization signal was measured using a Saphire2 plate reader (Tecan). Data analysis was performed using Dynafit software. In particular, titration data were fitted to the following equilibria: Enzyme+probe <==> Complex Enzyme-probe, while displacement data were fitted to the following equilibria: Enzyme+probe <==> Complex Enzyme-probe, Enzyme+Compound <==> Complex Enzyme-Compound, whereby binding of probe and compound on the enzyme are mutually exclusive (pure competitive mechanism). Displacement data were also fitted using Excel spreadsheet (Microsoft Inc. Seattle, USA) to a four parameter logistic model (4PL), or Hill-Slope model to calculate DC50s where the DC50 value represents the compound concentration at which the polarization signal is diminished by 50% compared to untreated controls.
(§3) In agreement, affinity binding constants (KD) were determined by fitting with a pure competitive mechanism. KD values are the average of three independent experiments.

For series [3], the target named is PARP-1 FL (Homo sapiens, UniProt P09874). As to the kind of experiment: Fluorescence polarization probe displacement assay. To be noted: for DC50: half maximal displacement concentration. In kind it is binding. On the technique in general: Polarisation of emitted light reports the rotation of a fluorescent probe.
Chain of PARP-1 FL (P09874 whole entry): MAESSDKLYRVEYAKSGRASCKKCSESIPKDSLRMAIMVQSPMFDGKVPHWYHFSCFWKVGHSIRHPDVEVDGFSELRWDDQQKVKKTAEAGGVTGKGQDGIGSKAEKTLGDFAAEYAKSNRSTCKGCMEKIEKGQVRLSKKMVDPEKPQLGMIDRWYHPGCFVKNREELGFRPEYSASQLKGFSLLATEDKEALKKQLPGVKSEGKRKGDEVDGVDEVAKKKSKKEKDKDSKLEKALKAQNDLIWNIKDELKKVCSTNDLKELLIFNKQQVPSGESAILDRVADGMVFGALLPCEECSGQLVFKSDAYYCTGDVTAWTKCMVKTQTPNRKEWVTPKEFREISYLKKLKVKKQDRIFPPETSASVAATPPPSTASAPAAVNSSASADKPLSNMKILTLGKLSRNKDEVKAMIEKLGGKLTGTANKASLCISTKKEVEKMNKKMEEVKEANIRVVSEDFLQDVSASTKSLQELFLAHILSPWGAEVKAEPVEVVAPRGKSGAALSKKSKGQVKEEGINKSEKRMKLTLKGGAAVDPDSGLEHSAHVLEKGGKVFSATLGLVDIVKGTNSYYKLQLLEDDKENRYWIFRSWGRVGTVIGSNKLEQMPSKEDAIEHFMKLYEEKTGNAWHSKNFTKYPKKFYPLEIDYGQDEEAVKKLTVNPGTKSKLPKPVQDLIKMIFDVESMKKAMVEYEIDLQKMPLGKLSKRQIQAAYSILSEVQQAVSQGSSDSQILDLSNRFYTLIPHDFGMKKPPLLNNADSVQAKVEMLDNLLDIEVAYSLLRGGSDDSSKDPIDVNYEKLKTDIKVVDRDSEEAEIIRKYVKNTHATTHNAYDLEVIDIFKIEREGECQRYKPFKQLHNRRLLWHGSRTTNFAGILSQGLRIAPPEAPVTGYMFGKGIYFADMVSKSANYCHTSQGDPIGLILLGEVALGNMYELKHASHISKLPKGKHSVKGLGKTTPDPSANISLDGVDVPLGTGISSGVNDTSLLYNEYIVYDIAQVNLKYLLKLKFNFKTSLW
Protocol: as §1, §2, §3
Series [4] concerns the target PARP-2 FL (Homo sapiens, UniProt Q9UGN5). As to the kind of experiment: Fluorescence polarization probe displacement assay. Format: binding. To be noted: for DC50: compound P1 as the probe.
Protocol: as §1, §2, §3
Series [5] concerns hydrogen peroxide induced PAR formation in HeLa cells. Nature of the series: Cellular PAR assay (inhibition of hydrogen peroxide induced PAR formation). To be noted: Homo sapiens, 0.1 mM hydrogen peroxide 15 min. Format: cell-based.
Protocol: Compounds potencies were evaluated by measuring the inhibition of poly (ADP-ribose) (PAR) chains formation as a marker for PARP-1 inhibition.
Cellular activity of PARP-1 inhibitors was assessed by measuring the inhibition of the hydrogen peroxide induced PAR formation in HeLa cells (ECACC). Cellular PAR levels were measured by immunocytochemistry and quantified using an ArrayScan vTi instrument (Cellomics Thermo Scientific).
Studies were performed as follows: 6000 cells/well were seeded in 96 well plates (Perkin Elmer) in MEM/10% FCS and incubated for 24 hours at 37° C., 5% carbon dioxide. Test compounds were then added at the required concentration for 30′. […] Concentration curves were prepared in MEM/10% FCS from compound stocks in DMSO and final DMSO concentration was 0.002% (v/v). Duplicate wells for each concentration point were prepared with a typical highest compound concentration of 20 μM and serial dilution 1:3. […] Non-specific binding sites were blocked by incubating wells for 30 min in PBS containing 5% (w/v) FBS 0.05% tween20. […] After washing further 3 times in PBS, cellular PAR immunoreactivity was assessed using the ArrayScan vTi instrument, with a Zeiss 10×0.5 N.A. objective, and applying the Cytotoxicity.V3 algorithm (Cellomics/Thermo Fisher) with a XF100 filter. At least 10 fields, corresponding to at least 900 cells, were read for each well.
The following formula is used: IC50=Bottom+(Top−Bottom)/(1+10^((Log EC50−X))); X is the logarithm of concentration. IC50 is the response; IC50 starts at Bottom and goes to Top with a sigmoid shape.
Series [6] has as its system Capan-1 human pancreatic cancer tumors. As to the kind of experiment: In vivo efficacy as single agent, Capan-1 BRCA-2 mutated mouse model. As to conditions: oral; for Toxicity: body weight reduction and survival. The text has this: Each group included seven animals. The treatment started one day after randomization.
For series [7] the test system is unchanged. To be noted: for T − C: delay to reach 1 g.
Description: Balb, athymic Nu/Nu male mice, from Harlan (Italy), were maintained in agreement with the European Communities Council Directive no. 86/609/EEC concerning the protection of animals used for experimental or other scientific purposes, in cages with paper filter cover, food and bedding sterilized and acidified water. Fragments of Capan-1 human pancreatic cancer tumors were implanted subcutaneously. Mice bearing a palpable tumor (100-200 mm^3) were selected and randomized into control and treated groups. Each group included seven animals. The treatment started one day after randomization. Compound of formula (I) was administered by oral route as a methocel suspension at the doses of 100 mg/kg daily or twice a day for the indicated times.
Compound (39) was administered by oral route at the dose of 100 mg/kg twice a day for ten consecutive days (days 1 to 10). […] Tumor growth and body weight were measured every 3 days. Tumor growth was assessed by caliper. The two diameters were recorded and the tumor weight was calculated according to the following formula: length (mm)×width^2/2. […] This delay (T−C value) was defined as the difference of time (in days) required for the treatment group (T) and the control group (C) tumors to reach a predetermined size (1 g). Toxicity was evaluated on the basis of body weight reduction and animal survival rate.
The subject of series [8] is ovarian cancer patients with confirmed BRCA-1 mutations. To be noted: preliminary phase I data; cited from earlier work.
The mark [9] stands for this setting: 100 mg/kg, days 1-20 once a day.
Where [10] appears, read: temozolomide alone, oral 50 mg/kg once a day, days 3, 4, 5, 6 and 7.
Where [11] appears, read: Compound (39) alone, oral 100 mg/kg twice a day, days 1 to 10.
[12] abbreviates: 100 mg/kg, days 1-10 twice a day.
[13] abbreviates: 150 mg/kg, days 1-14 twice a day.

Chain of PARP-2 FL (Q9UGN5 whole entry): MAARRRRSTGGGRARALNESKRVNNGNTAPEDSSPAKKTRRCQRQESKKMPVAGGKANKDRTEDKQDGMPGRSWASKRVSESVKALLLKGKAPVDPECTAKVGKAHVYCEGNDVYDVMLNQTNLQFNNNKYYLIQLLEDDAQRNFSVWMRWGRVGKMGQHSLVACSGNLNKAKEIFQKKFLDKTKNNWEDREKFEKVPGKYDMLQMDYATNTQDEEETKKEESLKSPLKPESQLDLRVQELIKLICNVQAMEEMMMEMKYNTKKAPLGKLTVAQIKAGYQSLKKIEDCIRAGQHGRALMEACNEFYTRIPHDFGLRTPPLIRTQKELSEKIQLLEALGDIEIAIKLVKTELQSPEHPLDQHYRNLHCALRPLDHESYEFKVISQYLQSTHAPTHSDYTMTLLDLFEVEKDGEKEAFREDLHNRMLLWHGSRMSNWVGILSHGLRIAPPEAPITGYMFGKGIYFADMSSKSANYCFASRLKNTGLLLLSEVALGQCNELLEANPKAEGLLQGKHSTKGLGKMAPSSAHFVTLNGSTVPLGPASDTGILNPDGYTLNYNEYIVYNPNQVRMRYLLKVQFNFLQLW

As to `COc1ccc(-c2[nH]c(=O)c3cc(F)ccc3c2OCCN)cc1.Cl` [Compound 25, 4-(2-Amino-ethoxy)-7-fluoro-3-(4-methoxy-phenyl)-2H-isoquinolin-1-one hydrochloride], in series [1], the “F on AUC” value was found to be 71%, the clearance came out at 42.2 mL/min/kg, the Vd was found to be 2.3 L/kg and the AUC came out at 8.32 µM·h. The half-life in series [1] is 2.17 h. In series [2], this compound displayed a DC50 of 0.21 µM. Further, in series [3], the Kd is < 0.01 µM and the DC50 was < 0.25 µM. Further, in series [4], the affinity, expressed as Kd, was 0.61 µM and the DC50 was 2.29 µM. The same compound displayed an IC50 in series [5] of 0.06 µM. In series [6] (setting [9]), the “Max TGI (%)” value is 18% and the Toxicity was 0/7.
Consider `Cn1nnc2c(C(N)=O)ncn2c1=O` [temozolomide, reference compound], for which, in series [7] (setting [10]), the Toxicity is given as 0/7 and the “T − C” value is given as 3 days.
As for `O=C(c1cc(Cc2n[nH]c(=O)c3ccccc23)ccc1F)N1CCN(C(=O)C2CC2)CC1` [AZD2281], the Partial responses in series [8] is 4 out of 10.
Consider `Cl.NCCOc1c(-c2ccccc2)[nH]c(=O)c2cc(F)ccc12` [Compound 39, 4-(2-Amino-ethoxy)-7-fluoro-3-phenyl-2H-isoquinolin-1-one hydrochloride], for which, in series [1], the “F on AUC” value is 72%, the clearance was determined as 37.9 mL/min/kg, the Vd is 1.7 L/kg and the AUC was 11 µM·h. Further, the half-life in series [1] was 1.06 h. The same compound came in with a DC50 in series [2] of 0.28 µM. Also, in series [3], the equilibrium dissociation constant (Kd) was < 0.01 µM and the DC50 was < 0.25 µM. For the same compound, in series [4], binding was characterised by a dissociation constant (Kd) of 4.38 µM and the DC50 came out at 3.32 µM. In addition, in series [7] (setting [11]), the Toxicity was 0/7 and the “T − C” value was found to be 3 days. In addition, the “Interaction of the combination (T−C versus addition of single treatments)” value in series [7] (compound (39) combined with temozolomide) is “strong synergism”. Also, in series [5], half-maximal inhibition (IC50) was put at 0.06 µM. In series [6] (setting [12]), the “Max TGI (%)” value amounted to 48% and the Toxicity was 0/7.
Regarding `COc1cccc(-c2[nH]c(=O)c3ccccc3c2OCCN)c1.Cl` [Compound 11, 4-(2-Amino-ethoxy)-3-(3-methoxy-phenyl)-2H-isoquinolin-1-one hydrochloride], in series [1], the “F on AUC” value was 64%, the clearance worked out at 120 mL/min/kg, the Vd was 2.6 L/kg and the area under the curve (AUC) was found to be 2.94 µM·h. For the same compound, the half-life in series [1] is 1.01 h. The DC50 in series [2] was 0.35 µM. Further, in series [3], the Kd is < 0.03 µM and the DC50 was < 0.25 µM. The half-inhibitory concentration (IC50) in series [5] came out at 0.18 µM. Further, in series [6] (setting [13]), the “Max TGI (%)” value was determined as 31% and the Toxicity was 0/7.

For orientation: AUC means concentration integrated over time. A high value points to high exposure. The Kd is a measure of binding affinity in units of concentration. A low value points to a tighter complex. One may read the IC50 as the concentration that inhibits the measured activity by half.

(Values after patent US8993594B2, “Isoquinolin-1(2H)-one derivatives as PARP-1 inhibitors” (Nerviano Medical Sciences S.R.L., priority 2009, dated 2015).)
